# Experimental data as given in PubChem BioAssay (NCI).
#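 These data come from cells grown in 96-well plates and exposed to compound for 48 hours at five concentrations. Abbreviation: GI50, concentration required for 50% inhibition of growth. TGI is the concentration that stops growth completely.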
# Assays:
# Experiment in all cases: inhibition of tumour cell growth, NCI panel, 48 h
# A498 renal = system: A498 renal
# SF-295 CNS = system: SF-295 CNS
# MOLT-4 leukemia = system: MOLT-4 leukemia
# U251 CNS = system: U251 CNS
# NCI-H23 lung = system: NCI-H23 lung
# SK-MEL-28 melanoma = system: SK-MEL-28 melanoma
# HCT-116 colon = system: HCT-116 colon
# NCI-H522 lung = system: NCI-H522 lung
# OVCAR-3 ovarian = system: OVCAR-3 ovarian
# SR leukemia = system: SR leukemia
# M14 melanoma = system: M14 melanoma
# BT-549 breast = system: BT-549 breast
# HCT-15 colon = system: HCT-15 colon
# RPMI-8226 leukemia = system: RPMI-8226 leukemia
# OVCAR-5 ovarian = system: OVCAR-5 ovarian
# MDA-MB-231 breast = system: MDA-MB-231 breast
# DU-145 prostate = system: DU-145 prostate
# KM12 colon = system: KM12 colon
# NCI-H460 lung = system: NCI-H460 lung
# COLO 205 colon = system: COLO 205 colon
# OVCAR-4 ovarian = system: OVCAR-4 ovarian
# SF-268 CNS = system: SF-268 CNS
# UACC-62 melanoma = system: UACC-62 melanoma
# HOP-92 NSCLC = system: HOP-92 NSCLC
# LOX IMVI melanoma = system: LOX IMVI melanoma
# OVCAR-8 ovarian = system: OVCAR-8 ovarian
# SK-OV-3 ovarian = system: SK-OV-3 ovarian
# NCI/ADR-RES ovarian = system: NCI/ADR-RES ovarian
# UO-31 renal = system: UO-31 renal
# HS 578T breast = system: HS 578T breast
# MDA-MB-435 = system: MDA-MB-435
# TK-10 renal = system: TK-10 renal
# MALME-3M melanoma = system: MALME-3M melanoma
# SW-620 colon = system: SW-620 colon
# PC-3 prostate = system: PC-3 prostate
# T-47D breast = system: T-47D breast
# SK-MEL-5 melanoma = system: SK-MEL-5 melanoma
# SK-MEL-2 melanoma = system: SK-MEL-2 melanoma
# HT29 colon = system: HT29 colon
# HL-60(TB) leukemia = system: HL-60(TB) leukemia
# HCC-2998 colon = system: HCC-2998 colon
# A549 NSCLC = system: A549 NSCLC
# SNB-19 CNS = system: SNB-19 CNS
# EKVX NSCLC = system: EKVX NSCLC
# UACC-257 melanoma = system: UACC-257 melanoma
# SNB-75 CNS = system: SNB-75 CNS
# CAKI-1 renal = system: CAKI-1 renal
# K-562 leukemia = system: K-562 leukemia
# CCRF-CEM leukemia = system: CCRF-CEM leukemia
# IGROV1 ovarian = system: IGROV1 ovarian
# SN12C renal = system: SN12C renal
# HOP-62 NSCLC = system: HOP-62 NSCLC
# ACHN renal = system: ACHN renal
# MCF7 breast = system: MCF7 breast
# 786-0 renal = system: 786-0 renal
# SF-539 CNS = system: SF-539 CNS
smiles,measurement,setting,value
C=CC[Se]C(=O)Cc1c(C)n(C(=O)c2ccc(Cl)cc2)c2ccc(OC)cc12,GI50,A498 renal,1520 nM
same,TGI,A498 renal,4250 nM
same,GI50,SF-295 CNS,334 nM
same,TGI,SF-295 CNS,1450 nM
same,GI50,MOLT-4 leukemia,2870 nM
same,TGI,MOLT-4 leukemia,8720 nM
same,GI50,U251 CNS,1100 nM
same,TGI,U251 CNS,2730 nM
same,GI50,NCI-H23 lung,1910 nM
same,TGI,NCI-H23 lung,3870 nM
same,GI50,SK-MEL-28 melanoma,1690 nM
same,TGI,SK-MEL-28 melanoma,3120 nM
same,GI50,HCT-116 colon,1760 nM
same,TGI,HCT-116 colon,3570 nM
same,GI50,NCI-H522 lung,1970 nM
same,TGI,NCI-H522 lung,4630 nM
same,GI50,OVCAR-3 ovarian,1780 nM
same,TGI,OVCAR-3 ovarian,3240 nM
same,GI50,SR leukemia,2290 nM
same,TGI,SR leukemia,8190 nM
same,GI50,M14 melanoma,1640 nM
same,TGI,M14 melanoma,3160 nM
same,GI50,BT-549 breast,1590 nM
same,TGI,BT-549 breast,3010 nM
same,GI50,HCT-15 colon,1840 nM
same,TGI,HCT-15 colon,3870 nM
same,GI50,RPMI-8226 leukemia,2280 nM
same,TGI,RPMI-8226 leukemia,5860 nM
same,GI50,OVCAR-5 ovarian,1720 nM
same,TGI,OVCAR-5 ovarian,3210 nM
same,GI50,MDA-MB-231 breast,1660 nM
same,TGI,MDA-MB-231 breast,3210 nM
same,GI50,DU-145 prostate,1900 nM
same,TGI,DU-145 prostate,3750 nM
same,GI50,KM12 colon,1530 nM
same,TGI,KM12 colon,3420 nM
same,GI50,NCI-H460 lung,491 nM
same,TGI,NCI-H460 lung,3190 nM
same,GI50,COLO 205 colon,2140 nM
same,TGI,COLO 205 colon,4380 nM
same,GI50,OVCAR-4 ovarian,1690 nM
same,TGI,OVCAR-4 ovarian,3070 nM
same,GI50,SF-268 CNS,2230 nM
same,TGI,SF-268 CNS,5700 nM
same,GI50,UACC-62 melanoma,1740 nM
same,TGI,UACC-62 melanoma,3180 nM
same,GI50,HOP-92 NSCLC,1850 nM
same,TGI,HOP-92 NSCLC,4090 nM
same,GI50,LOX IMVI melanoma,1740 nM
same,TGI,LOX IMVI melanoma,3340 nM
same,GI50,OVCAR-8 ovarian,1840 nM
same,TGI,OVCAR-8 ovarian,3680 nM
same,GI50,SK-OV-3 ovarian,1630 nM
same,TGI,SK-OV-3 ovarian,3100 nM
same,GI50,NCI/ADR-RES ovarian,1940 nM
same,TGI,NCI/ADR-RES ovarian,3890 nM
same,GI50,UO-31 renal,1540 nM
same,TGI,UO-31 renal,2880 nM
same,GI50,HS 578T breast,2250 nM
same,TGI,HS 578T breast,7330 nM
same,GI50,MDA-MB-435,2710 nM
same,TGI,MDA-MB-435,8440 nM
same,GI50,TK-10 renal,1750 nM
same,TGI,TK-10 renal,3190 nM
same,GI50,MALME-3M melanoma,1710 nM
same,TGI,MALME-3M melanoma,3450 nM
same,GI50,SW-620 colon,1990 nM
same,TGI,SW-620 colon,4420 nM
same,GI50,PC-3 prostate,1260 nM
same,TGI,PC-3 prostate,2800 nM
same,GI50,T-47D breast,2290 nM
same,TGI,T-47D breast,5700 nM
same,GI50,SK-MEL-5 melanoma,1730 nM
same,TGI,SK-MEL-5 melanoma,3130 nM
same,GI50,SK-MEL-2 melanoma,1940 nM
same,TGI,SK-MEL-2 melanoma,4140 nM
same,GI50,HT29 colon,3390 nM
same,TGI,HT29 colon,> 100000 nM
same,GI50,HL-60(TB) leukemia,2260 nM
same,TGI,HL-60(TB) leukemia,5560 nM
same,GI50,HCC-2998 colon,1640 nM
same,TGI,HCC-2998 colon,3200 nM
same,GI50,A549 NSCLC,1620 nM
same,TGI,A549 NSCLC,6180 nM
same,GI50,SNB-19 CNS,657 nM
same,TGI,SNB-19 CNS,1990 nM
same,GI50,EKVX NSCLC,1730 nM
same,TGI,EKVX NSCLC,3550 nM
same,GI50,UACC-257 melanoma,2020 nM
same,TGI,UACC-257 melanoma,4640 nM
same,GI50,SNB-75 CNS,1480 nM
same,TGI,SNB-75 CNS,2810 nM
same,GI50,CAKI-1 renal,1660 nM
same,TGI,CAKI-1 renal,3050 nM
same,GI50,K-562 leukemia,3220 nM
same,TGI,K-562 leukemia,19200 nM
same,GI50,CCRF-CEM leukemia,2580 nM
same,TGI,CCRF-CEM leukemia,7640 nM
same,GI50,IGROV1 ovarian,1880 nM
same,TGI,IGROV1 ovarian,3750 nM
same,GI50,SN12C renal,1680 nM
same,TGI,SN12C renal,3050 nM
same,GI50,HOP-62 NSCLC,435 nM
same,TGI,HOP-62 NSCLC,2930 nM
same,GI50,ACHN renal,1790 nM
same,TGI,ACHN renal,3250 nM
same,GI50,MCF7 breast,1810 nM
same,TGI,MCF7 breast,4170 nM
same,GI50,786-0 renal,1730 nM
same,TGI,786-0 renal,3190 nM
same,GI50,SF-539 CNS,1660 nM
same,TGI,SF-539 CNS,3020 nM
